pEC50: −log10 of the molar value. Calls of active or inactive are those of the source. No cut-off for these calls is given here.
Tests used:
[1] = Inhibition of microRNA in human HeLa cells transfected with pCI-neo-luciferase-miR-21 plasmid assessed as increase in luciferase activity by luciferase reporter assay; format: cell-based
HeLa [2] = test: Downregulation of miR-21 expression in human HeLa cells at 10 uM incubated for 6 hrs by qRT-PCR analysis; format: functional
HeLa [3] = test: Downregulation of miR-214 expression in human HeLa cells at 10 uM incubated for 6 hrs by qRT-PCR analysis; format: functional
HeLa [4] = test: Downregulation of miR-30A expression in human HeLa cells at 10 uM incubated for 6 hrs by qRT-PCR analysis; format: functional
HepG2 [5] = test: Downregulation of miR-21 expression in human HepG2 cells at 10 uM incubated for 6 hrs by qRT-PCR analysis; format: functional
HepG2 [6] = test: Downregulation of miR-122 expression in human HepG2 cells at 10 uM incubated for 6 hrs by qRT-PCR analysis; format: functional
MHCC97-L [7] = test: Inhibition of cell invasion in human MHCC97-L cells at 1 to 25 uM measured after 24 hrs by crystal violet staining based transwell assay; format: functional; conditions: dose 1-25 µM
MHCC97-L [8] = test: Inhibition of cell migration in human MHCC97-L cells at 1 to 25 uM measured after 24 hrs by crystal violet staining based transwell assay; format: functional; conditions: dose 1-25 µM
SK-HEP1 [9] = test: Downregulation of N-cadherin expression in human SK-HEP1 cells at 1 to 25 uM by Western blot analysis; format: functional, cell-based; conditions: dose 1-25 µM
MHCC97-L [10] = test: Antitumor activity against human MHCC97-L cells xenografted in SCID mouse assessed as reduction in tumor proliferation at 10 to 50 mg/kg, ip administered every 2 days for 4 weeks; format: functional, organism-based; conditions: dose 10-50 mg/kg
[11] = Toxicity in SCID mouse xenografted with human MHCC97-L cells assessed as change in body weight at 10 to 50 mg/kg, ip administered every 2 days for 4 weeks and measured on alternate days; format: organism-based; conditions: in vivo, 672 h, dose 10-50 mg/kg
[12] = Toxicity in SCID mouse xenografted with human MHCC97-L cells assessed as effect on kidney at 10 to 50 mg/kg, ip administered every 2 days for 4 weeks by hematoxyin-eosin staining based analysis; format: organism-based; conditions: in vivo, 672 h, dose 10-50 mg/kg
[13] = Toxicity in SCID mouse xenografted with human MHCC97-L cells assessed as effect on liver at 10 to 50 mg/kg, ip administered every 2 days for 4 weeks by hematoxyin-eosin staining based analysis; format: organism-based; conditions: in vivo, 672 h, dose 10-50 mg/kg
Mus musculus [14] = test: Downregulation of beta-catenin expression in liver of SCID mouse xenografted with human SK-HEP1 cells at 10 to 50 mg/kg, ip administered every 2 days for 4 weeks by immunohistochemical staining analysis; format: functional, organism-based; conditions: dose 10-50 mg/kg
Mus musculus [15] = test: Downregulation of vimentin expression in liver of SCID mouse xenografted with human SK-HEP1 cells at 10 to 50 mg/kg, ip administered every 2 days for 4 weeks by immunohistochemical staining analysis; format: functional, organism-based; conditions: dose 10-50 mg/kg
SK-HEP1 [16] = test: Downregulation of miR-135 expression in human SK-HEP1 cells at 10 uM by qRT-PCR analysis; format: functional, cell-based
MHCC97-L [17] = test: Upregulation of miR-125 expression in human MHCC97-L cells at 10 uM by qRT-PCR analysis; format: functional, cell-based
HCCLM3 = test: Downregulation of miR-135 expression in human HCCLM3 cells at 10 uM by qRT-PCR analysis; format: functional, cell-based
SK-HEP1 [18] = test: Downregulation of mature miR-21 expression in human SK-HEP1 cells at 10 uM incubated for 24 hrs; format: functional, cell-based
SK-HEP1 [19] = test: Upregulation of PDCD4 protein expression in human SK-HEP1 cells incubated for 24 hrs by Western blotting analysis; format: functional, cell-based; conditions: dose 1-50 µM, DDE = dose-dependent effect
SK-HEP1 [20] = test: Downregulation of PTEN protein expression in pCMV3-TRBP transfected human SK-HEP1 cells at 10 uM incubated for 24 hrs by Western blotting analysis; format: functional, cell-based
SK-HEP1 [21] = test: Downregulation of beta-catenin expression level in TRBP siRNA transfected human SK-HEP1 cells incubated for 48 hrs by Western blotting analysis; format: functional, cell-based
SK-HEP1 [22] = test: Downregulation of vimentin expression level in TRBP siRNA transfected human SK-HEP1 cells incubated for 48 hrs by Western blotting analysis; format: functional, cell-based
HeLa [23] = test: Upregulation of pri-miR-21 in human HeLa cells at 10 uM incubated for 6 hrs by qRT-PCR analysis; format: functional, cell-based
HeLa [24] = test: Upregulation of pri-miR-30a in human HeLa cells at 10 uM incubated for 6 hrs by qRT-PCR analysis; format: functional, cell-based
HeLa [25] = test: Upregulation of pri-miR-155 in human HeLa cells at 10 uM incubated for 6 hrs by qRT-PCR analysis; format: functional, cell-based
HepG2 [26] = test: Upregulation of pri-miR-21 in human HepG2 cells at 10 uM incubated for 6 hrs by qRT-PCR analysis; format: functional, cell-based
HepG2 [27] = test: Upregulation of pri-miR-221 in human HepG2 cells at 10 uM incubated for 6 hrs by qRT-PCR analysis; format: functional, cell-based
HeLa [28] = test: Upregulation of pre-miR-30a in human HeLa cells at 10 uM incubated for 6 hrs by qRT-PCR analysis; format: functional, cell-based
HeLa [29] = test: Upregulation of pre-miR-155 in human HeLa cells at 10 uM incubated for 6 hrs by qRT-PCR analysis; format: functional, cell-based
HepG2 [30] = test: Upregulation of pre-miR-221 in human HepG2 cells at 10 uM incubated for 6 hrs by qRT-PCR analysis; format: functional, cell-based
SK-HEP1 [31] = test: Downregulation of ZEB2 expression in human SK-HEP1 cells at 1 to 25 uM by Western blotting analysis; format: functional, cell-based; conditions: dose 1-25 µM
SK-HEP1 [32] = test: Downregulation of RHOB expression in human SK-HEP1 cells at 1 to 25 uM by Western blotting analysis; format: functional, cell-based; conditions: dose 1-25 µM
[33] = biological target: T1, Programmed cell death protein 4 (Homo sapiens) (UniProt Q53EL6); test: Inhibition of PDCD4 in human HeLa cells tranfected with pCI-neo-luciferase-PDCD4 3'-UTR plasmid assessed as fold change in luciferase signal by measuring relative luciferase unit by luciferase reporter assay; format: cell-based
T1 sequence (whole entry): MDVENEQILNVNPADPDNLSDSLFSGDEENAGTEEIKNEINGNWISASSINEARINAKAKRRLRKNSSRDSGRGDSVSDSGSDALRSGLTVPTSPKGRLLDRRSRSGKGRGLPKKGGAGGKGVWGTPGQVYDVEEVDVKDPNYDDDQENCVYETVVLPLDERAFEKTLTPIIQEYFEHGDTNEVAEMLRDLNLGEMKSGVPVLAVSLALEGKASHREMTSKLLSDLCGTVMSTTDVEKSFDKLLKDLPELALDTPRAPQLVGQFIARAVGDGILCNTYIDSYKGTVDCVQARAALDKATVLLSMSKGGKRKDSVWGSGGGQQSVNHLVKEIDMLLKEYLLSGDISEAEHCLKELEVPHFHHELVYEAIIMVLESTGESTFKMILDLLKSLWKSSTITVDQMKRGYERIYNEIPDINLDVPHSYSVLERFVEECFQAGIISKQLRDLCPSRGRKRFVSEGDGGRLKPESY

Molecule `CCOC(=O)c1nc(-c2ccc(OC)cc2)oc1C` has a pEC50 [1] of 5.86, an Activity (HeLa [2]) of 60% and an Activity (HeLa [3]) of 60%. It also gave an Activity (HeLa [4]) of 60%, an Activity (HepG2 [5]) of 60% and an Activity (HepG2 [6]) of 60%. The inhibition (MHCC97-L [7]) was “Active”, the inhibition (MHCC97-L [8]) was “Active” and the Activity (SK-HEP1 [9]) was “Active”. For the same molecule, the Activity (MHCC97-L [10]) was “Active”, the Activity [11] was “Non-Toxic” and the Activity [12] was “Non-Toxic”. For the same molecule, the Activity [13] was “Non-Toxic”, the Activity (Mus musculus [14]) was “Active” and the Activity (Mus musculus [15]) was “Active”. The Activity (SK-HEP1 [16]) was “Active”, the Activity (MHCC97-L [17]) was “Active” and the Activity (HCCLM3) was “Active”. The Activity (SK-HEP1 [18]) was “Active”, the Activity (SK-HEP1 [19]) was “Dde” and the Activity (SK-HEP1 [20]) was “Active”. The Activity (SK-HEP1 [21]) was “Active”, the Activity (SK-HEP1 [22]) was “Active” and the Activity (HeLa [23]) was “Active”. For the same molecule, the Activity (HeLa [24]) was “Active”, the Activity (HeLa [25]) was “Active” and the Activity (HepG2 [26]) was “Active”. For the same molecule, the Activity (HepG2 [27]) was “Active”, the Activity (HeLa [28]) was “Active” and the Activity (HeLa [29]) was “Active”. The Activity (HepG2 [30]) was “Active”, the Activity (SK-HEP1 [31]) was “Active” and the Activity (SK-HEP1 [32]) was “Active”. It also gave an RLU [33] of 2.13.
